# Several values for one entry are separate records, joined by “and”; a condition that tells them apart may be missing. Identical values can stand only once.
# System: HepG2 cells
# Assay: Uptake of compounds by HepG2 cells
# Type: cell-based, human
# Details: 100 μM compound, 1 hour at 37° C., per mg protein, iodo conjugates by ICP-MS iodide content, 14C controls by scintillation counting
# Description: This example describes assays conducted to determine to what extent certain iodo-containing conjugates of the invention are taken up or transported into cancer cells. As a positive control, the uptake of ^14C-labeled-2-deoxy-D-glucose, a compound transported into human cells via glucose transporters and phosphorylated by hexokinase, and thus retained in the cell, was measured. As a negative control, the uptake of ^14C-labeled-3-O-methyl-glucose, which is transported into the cell via the glucose transporters but is not phosphorylated and so is not retained, was measured.
# The control assay was conducted as follows. HepG2 cells were plated at a density of 2×10^5 cells per well into a 24 well plate, and the plates were maintained in 37° C. incubator (5% CO2) for 2 days. Prior to the uptake assay, the HepG2 cells were rinsed twice with pre-warmed (37° C.) phosphate-buffered saline (PBS) containing 1 mM CaCl2, 1 mM MgCl2 and 0.3% BSA. The rinsed HepG2 cells were then incubated with 270 μl of buffer (PBS/Ca/Mg/BSA) in the absence or presence of D-glucose (10 mM), L-glucose (10 mM), cytochalasin B (10 μM) or phloretin (0.3 mM) for 10 min at 37° C. Then, 30 μl of ^14C-2DG (final concentration: 100 μM, 0.1 μCi) were added to each well, and the cells were incubated for 1 hour at 37° C. The plate was placed on ice, and the cells were washed rapidly three times with cold PBS buffer (4° C.) containing 1 mM CaCl2 and MgCl2. The cells were then lysed with 150 μl of 1% Triton X-100, and the lysate was transferred to a scintillation vial. The well was rinsed with 200 μl ddH2O, and the rinsate was transferred to the same vial. Radioactivity was quantified using a scintillation counter. The protein concentration of each sample was determined using a BCA kit (Sigma, St Louis, Mo.). The amount of uptake of ^14C-2DG is reported below in units of nmole/mg protein/60 min.
# To measure uptake of the iodo-containing compounds of the invention, HepG2 cells were plated at a density of 2×10^5 cells per well into a 24 well plate, and the plates were maintained in 37° C. incubator (5% CO2) for 2 days. Prior to the uptake assay, the HepG2 cells were rinsed twice with pre-warmed (37° C.) phosphate-buffered saline (PBS) containing 1 mM CaCl2, 1 mM MgCl2 and 0.3% BSA. The HepG2 cells were then incubated with 270 μl of buffer (PBS/Ca/Mg/BSA) in the absence or presence of D-glucose (10 mM), L-glucose (10 mM), cytochalasin B (10 μM) or phloretin (0.3 mM) for 10 min at 37° C. Then, 30 μl of each of the conjugates (final concentration: 100 μM) were added to individual test wells, and the plates were incubated for 1 hour at 37° C. The plate was placed on ice, and then, the cells were washed rapidly three times with cold PBS buffer (4° C.) containing 1 mM CaCl2 and MgCl2. The cells were lysed by the sequential addition of 150 μl of 1% Triton X-100 and 100 μl of ddH2O into each well. Lysates from six replicate wells were pooled together for each sample (volume per sample: 1.5 ml). The protein concentration of each sample was determined using a BCA kit (Sigma, St Louis, Mo.). Samples were diluted by addition of 4 ml of ddH2O (final volume per sample: 5.5 ml), and the samples treated with the iodo-containing conjugates were analyzed for iodide content by inductively coupled plasma-mass spectrometry (West Coast Analytical Service, Santa Fe Spring, Calif.). The amount of uptake of iodide-containing glucose conjugate is reported as nmole/mg protein/60 min.
row,Compound,Uptake
1,O=C(COCCOCCOCCOCCOCc1ccc(I)cc1)NC1C(O)O[C@H](CO)[C@@H](O)[C@@H]1O (stereo partly shown) [TP017],0.16 nmole/mg/60 min and 0.18 nmole/mg/60 min
2,"OC[C@H]1OC(O)[C@H](N(C/C=C\I)C/C=C\I)[C@@H](O)[C@@H]1O (stereo partly shown) [TP018, bis-Z-3-iodopropen-2-yl glucosamine]",2.28 nmole/mg/60 min and 2.31 nmole/mg/60 min
3,4-iodobenzyl glucosamine [TP012],2.8 +/− 0.14 (n = 4) nmole/mg/60 min
4,"O=S(=O)(N[C@H]1C(O)O[C@H](CO)[C@@H](O)[C@@H]1O)c1ccc(I)cc1 (stereo partly shown) [TP020, Pipsyl glucosamine]",0.83 nmole/mg/60 min and 0.81 nmole/mg/60 min
5,4-(iodophenyl)thiocarbamoyl glucosamine [TP022],0.90 nmole/mg/60 min and 0.97 nmole/mg/60 min
6,"O=CC[C@@H](O)[C@H](O)[C@H](O)CO [Compound 2-DG, 2-deoxy-D-glucose, reference compound]",51.8 +/− 4.3 (n = 3) nmole/mg/60 min
7,"OC[C@H]1OC(O)[C@H](N(C/C=C/I)C/C=C/I)[C@@H](O)[C@@H]1O (stereo partly shown) [TP019, bis-E-3-iodopropen-2-yl glucosamine]",1.39 nmole/mg/60 min and 1.00 nmole/mg/60 min
8,4-iodohippuroyl glucosamine [TP011],0.5 nmole/mg/60 min
9,"CO[C@@H]([C@H](O)[C@H](O)CO)[C@@H](O)C=O [3-O-Methyl Glucose, 3-O-methyl-glucose, reference compound]",0.2 nmole/mg/60 min
10,O=C(NCCN[C@H]1C(O)O[C@H](CO)[C@@H](O)[C@@H]1O)c1ccc(I)cc1 (stereo partly shown) [TP014],1.2 nmole/mg/60 min

# Same assay, conditions: D-glucose (10 mM) present
row,Compound,Effect of D-glucose on uptake
1,4-iodobenzyl glucosamine [TP012],not blocked
2,4-iodohippuroyl glucosamine [TP011],blocked

# Same assay, conditions: L-glucose (10 mM) present
row,Compound,Effect of L-glucose on uptake
1,4-iodobenzyl glucosamine [TP012],not blocked
2,4-iodohippuroyl glucosamine [TP011],not L-glucose

# Same assay, conditions: comparison of Table 1 values
row,Compound,Relative uptake among the compounds of the invention tested
1,"OC[C@H]1OC(O)[C@H](N(C/C=C\I)C/C=C\I)[C@@H](O)[C@@H]1O (stereo partly shown) [TP018, bis-Z-3-iodopropen-2-yl glucosamine]",most taken up by the cells
2,4-iodobenzyl glucosamine [TP012],most taken up by the cells
